Data published in patent US10695334B2, “Heteroaromatic carboxamide derivatives as plasma kallikrein inhibitors” (Boehringer Ingelheim International GmbH, priority 2018, dated 2020).

Assays:
Assay type in all cases: biochemical
Human PKK [1] = biological target: T1, Human PKK (Homo sapiens (Human), UniProt P03952); test: Inhibition of PKK, endpoint assay (human PKK); conditions: substrate H-Pro-Phe-Arg-AMC, 1 h room temperature
Description: Subsequently, PPACK II (Calbiochem) was added as a stop solution to achieve a final concentration of 1 μM and fluorescence was measured using an Envision Reader (PerkinElmer) with the wavelength excitation setting of 355 nm and the wavelength emission setting of 460 nm.

human TK1 = human TK1 (Homo sapiens (Human), UniProt P06870); test: Inhibition of TK1 (Ki); conditions: column head prints IC50, text above the table says Ki values
Description: The ability of compounds of formula (I) to inhibit plasma kallikrein (PKK), Factor Xlla (FXIIa), Factor Xla (FXIa), Factor Xa (FXa), Factor Ila (alpha-thrombin; FIIa), plasmin, trypsin, tissue kallikrein 1 (TK1), Factor VIIa (FVIIa), or FVIIa complexed with Tissue Factor, phospholipids and CaCl2 (FVIIa/TF/PL/CaCl2) was determined using the following biochemical assays in assay buffer (100 mM Tris, 150 mM NaCL, adjusted to a pH of 7.8 with HCl, and containing 0.1% (w/v) BSA and 0.05% (v/v) Tween20) in the presence of 1% (v/v) DMSO: EVALUATION OF THE INHIBITION OF PKK USING AN ENDPOINT ASSAY Human PKK (0.01 U/mL; Enzyme Research Laboratories) or rat PKK (0.625 nM; produced in-house) was incubated for 1 h at room temperature with 0.10 μM fluorogenic substrate H-Pro-Phe-Arg-AMC (11295 from Bachem) and various concentrations of the test compound in assay buffer. Subsequently, PPACK II (Calbiochem) was added as a stop solution to achieve a final concentration of 1 μM and fluorescence was measured using an Envision Reader (PerkinElmer) with the wavelength excitation setting of 355 nm and the wavelength emission setting of 460 nm.
Prior to the assay, human TK1 (R&D Systems) was activated by incubation with human trypsin (Calbiochem) in a 1:10,000 ratio for 15 min at 37° C. For assaying TK1 inhibitory activity, activated TK1 (31.25 nM or 1 U/mL) was incubated at 24° C. with 0.1 mM fluorogenic substrate H-Pro-Phe-Arg-AMC (11295 from Bachem) and various concentrations of the test compound in assay buffer. Measurements were performed in a kinetic interval every 2nd minute for 16 min using a Spectramax M5 (Molecular Devices) with the following settings of the wavelength excitation of 350 nm and wavelength emission of 450 nm.
The average Vmax values for the time interval from 2 to 12 min after initiation of the assay (expressed as either delta OD/min for assays using a chromogenic substrate or delta RFU/min for assays using a fluorigenic substrate, respectively) were plotted versus the Log of the concentration in molar of the evaluated inhibitor compound. The pIC50 values were then fitted using a four-parametric fitting procedure using GraphPad Prism (version 6; GraphPad Software, Inc.). Respective Ki values were obtained by correction of the IC50 values for the respective KM value of the used substrate (see Table A for the obtained KM values of the used substrates) using the following formula: […]
(§1) Where the IC50 is in molar and the KM value in mM.

Human PKK [2] = biological target: T1, Human PKK; test: Inhibition of PKK (Ki), kinetic assay; conditions: 24° C., IC50 corrected for KM
Description: Measurements were performed in a kinetic interval every 2nd minute for 16 min using a Spectramax M5 (Molecular Devices) with the following settings of the wavelength excitation of 350 nm and wavelength emission of 450 nm. The number of the compound corresponds to the number of the Example in the experimental section.
The pIC50 values were then fitted using a four-parametric fitting procedure using GraphPad Prism (version 6; GraphPad Software, Inc.).
as §1

human TK1, sequence (P06870 25-262): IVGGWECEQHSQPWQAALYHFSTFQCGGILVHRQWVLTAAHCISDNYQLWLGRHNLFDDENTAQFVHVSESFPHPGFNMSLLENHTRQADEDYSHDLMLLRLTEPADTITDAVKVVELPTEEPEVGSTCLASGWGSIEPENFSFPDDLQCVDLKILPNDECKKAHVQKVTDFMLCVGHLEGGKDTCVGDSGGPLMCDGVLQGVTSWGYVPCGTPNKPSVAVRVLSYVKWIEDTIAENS
T1 sequence (P03952 391-638): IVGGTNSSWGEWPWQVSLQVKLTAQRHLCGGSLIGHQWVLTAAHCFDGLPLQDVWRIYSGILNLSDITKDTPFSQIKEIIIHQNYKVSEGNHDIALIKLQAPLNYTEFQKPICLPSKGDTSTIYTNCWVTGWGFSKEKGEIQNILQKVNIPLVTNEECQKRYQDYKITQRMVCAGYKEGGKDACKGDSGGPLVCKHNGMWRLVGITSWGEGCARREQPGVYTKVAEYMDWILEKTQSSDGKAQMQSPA
T1 sequence (P03952 20-390 partner): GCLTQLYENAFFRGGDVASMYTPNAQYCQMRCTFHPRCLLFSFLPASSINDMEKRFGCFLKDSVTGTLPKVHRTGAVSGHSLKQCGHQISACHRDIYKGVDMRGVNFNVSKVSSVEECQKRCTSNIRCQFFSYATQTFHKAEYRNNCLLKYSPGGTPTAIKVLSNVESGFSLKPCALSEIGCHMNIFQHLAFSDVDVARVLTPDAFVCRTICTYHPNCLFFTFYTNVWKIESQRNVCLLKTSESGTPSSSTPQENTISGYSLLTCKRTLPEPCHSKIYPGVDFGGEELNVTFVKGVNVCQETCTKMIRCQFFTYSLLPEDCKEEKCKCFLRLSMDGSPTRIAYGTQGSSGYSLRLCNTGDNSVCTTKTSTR

Row | SMILES | IC50 (Human PKK [1]) | IC50 (human TK1) | Ki (Human PKK [2])
1 | Cc1nc(N2CC3C(C2)C3(F)F)ccc1Cn1cc(C(=O)N[C@@H]2CCc3c(C)n[nH]c32)c2cncnc21 (stereo partly drawn) [Example 13, 7-[(6-{6,6-Difluoro-3-azabicyclo[3.1.0]hexan-3-yl}-2-methylpyridin-3-yl)methyl]-N-[(6R)-3-methyl-1H,4H,5H,6H-cyclopenta[c]pyrazol-6-yl]-7H-pyrrolo[2,3-d]pyrimidine-5-carboxamide] | 0.5 nM | > 10000 nM | 0.1 nM
2 | Cc1nc(N2CC3CC3C2)ccc1Cn1cc(C(=O)N[C@@H]2CCc3c(C)n[nH]c32)c(C(F)F)n1 (stereo partly drawn) [Example 14, 1-[(6-{3-Azabicyclo[3.1.0]hexan-3-yl}-2-methyl-pyridin-3-y)methyl]-3-(difluoromethyl)-N-[(6R)-3-methyl-1H,4H,5H,6H-cyclopenta[c]pyrazol-6-yl]-1H-pyrazole-4-carboxamide] | 0.5 nM | > 10000 nM | 0.1 nM
3 | COCc1nn(Cc2ccc(N3CC4C(C3)C4(F)F)nc2C)cc1C(=O)N[C@@H]1CCc2c(C)n[nH]c21 (stereo partly drawn) [Example 15, 1-[(6-{6,6-Difluoro-3-azabicyclo[3.1.0]hexan-3-yl}-2-methylpyridin-3-yl)methyl]-3-(methoxymethyl)-N-[(6R)-3-methyl-1H,4H,5H,6H-cyclopenta[c]-pyrazol-6-yl]-1H-pyrazole-4-carboxamide] | 0.8 nM | > 10000 nM | 0.1 nM
4 | Cc1nc(N2CC3CC3C2)ncc1Cn1cc(C(=O)N[C@@H]2CCc3c(C)n[nH]c32)c(C)n1 (stereo partly drawn) [Example 25, 1-[(2-{3-Azabicyclo[3.1.0]hexan-3-yl}-4-methyl-pyrimidin-5-yl)methyl]-3-methyl-N-[(6R)-3-methyl-1H,4H,5H,6H-cyclopenta[c]pyrazol-6-yl]-1H-pyrazole-4-carboxamide] | 3 nM | > 10000 nM | –
5 | Cc1nc(N2CC3(CC3)C2)ncc1Cn1cc(C(=O)N[C@@H]2CCc3c(C)n[nH]c32)c2cncnc21 [Example 33, 7-[(2-{5-Azaspiro[2.3]hexan-5-yl}-4-methyl-pyrimidin-5-yl)methyl]-N-[(6R)-3-methyl-1H,4H,5H,6H-cyclopenta[c]pyrazol-6-yl]-7H-pyrrolo[2,3-d]pyrimidine-5-carboxamide] | 3 nM | > 10000 nM | –
6 | Cc1nc(N2CCC3(CC3)C2)ccc1Cn1cc(C(=O)N[C@@H]2CCc3c2n[nH]c3C)cn1 [Example 45, 1-[(6-{5-Azaspiro[2.4]heptan-5-yl]-2-methylpyridin-3-yl)methyl]-N-[(6R)-3-methyl-2H,4H,5H,6H-cyclopenta[c]pyrazol-6-yl]-1H-pyrazole-4-carboxamide] | 4 nM | > 10000 nM | –
7 | Cc1nc(N2CCC3CC3C2)ccc1Cn1cc(C(=O)N[C@@H]2CCc3c2n[nH]c3C)cn1 (stereo partly drawn) [Example 48, 1-[(6-{3-Azabicyclo[4.1.0]heptan-3-yl}-2-methylpyridin-3-yl)methyl]-N-[(6R)-3-methyl-2H,4H,5H,6H-cyclopenta[c]pyrazol-6-yl]-1H-pyrazole-4-carboxamide] | 5 nM | > 10000 nM | –
8 | Cc1nc(N2C[C@@H]3[C@@H](C)[C@@H]3C2)ccc1Cn1cc(C(=O)N[C@@H]2CCc3c2n[nH]c3C)cn1 [Example 79, N-[(6R)-3-Methyl-2H,4H,5H,6H-cyclopenta[c]pyrazol-6-yl]-1-({2-methyl-6-[(1R,5S,6R)-6-methyl-3-azabicyclo[3.1.0]hexan-3-yl]pyridin-3-yl}methyl)-1H-pyrazole-4-carboxamide] | 4 nM | > 10000 nM | –
9 | Cc1nc(N2CC3CC3C2C)ccc1Cn1cc(C(=O)N[C@@H]2CCc3c2n[nH]c3C)cn1 (stereo partly drawn) [Example 82, N-[(6R)-3-Methyl-2H,4H,5H,6H-cyclopenta[c]pyrazol-6-yl]-1-[(2-methyl-6-{2-methyl-3-azabicyclo[3.1.0]hexan-3-yl}pyridin-3-yl)methyl]-1H-pyrazole-4-carboxamide] | 2 nM | > 10000 nM | –
10 | Cc1nc(N2CC3CC3C2)ccc1Cn1cc(C(=O)N[C@@H]2CCc3c(C)n[nH]c32)nn1 (stereo partly drawn) [Example 86, 1-[(6-{3-Azabicyclo[3.1.0]hexan-3-yl}-2-methylpyridin-3-yl)methyl]-N-[(6R)-3-methyl-1H,4H,5H,6H-cyclopenta[c]pyrazol-6-yl]-1H-1,2,3-triazole-4-carboxamide] | 0.4 nM | > 10000 nM | –
11 | Cc1nc(N2CC3(CC3)C2)ccc1Cn1cnc(C(=O)N[C@@H]2CCc3c(C)n[nH]c32)c1 [Example 88, 1-[(6-{5-Azaspiro[2.3]hexan-5-yl}-2-methylpyridin-3-yl)methyl]-N-[(6R)-3-methyl-2H,4H,5H,6H-cyclo-penta[c]pyrazol-6-yl]-1H-imidazole-4-carboxamide] | 1 nM | > 10000 nM | –
12 | Cc1nc(N2CC3C(C2)C3(F)F)ccc1Cn1cnc(C(=O)N[C@@H]2CCc3c2n[nH]c3C)c1 (stereo partly drawn) [Example 89, 1-[(6-{6,6-Difluoro-3-azabicyclo[3.1.0]hexan-3-yl}-2-methylpyridin-3-yl)methyl]-N-[(6R)-3-methyl-2H,4H,5H,6H-cyclopenta[c]pyrazol-6-yl]-1H-imidazole-4-carboxamide] | 0.6 nM | > 10000 nM | –
13 | Cc1nc(N2CC3CC3C2)ccc1Cn1cnc(C(=O)N[C@@H]2CCc3c2n[nH]c3C)c1 (stereo partly drawn) [Example 90, 1-[(6-{3-Azabicyclo[3.1.0]hexan-3-yl}-2-methyl-pyridin-3-yl)methyl]-N-[(6R)-3-methyl-2H,4H,5H,6H-cyclopenta[c]pyrazol-6-yl]-1H-imidazole-4-carboxamide] | 0.8 nM | > 10000 nM | –
14 | Cc1nc(N2CC3C(C2)C3(F)F)ncc1Cn1cnc(C(=O)N[C@@H]2CCc3c2n[nH]c3C)c1 (stereo partly drawn) [Example 92, 1-[(2-{6,6-Difluoro-3-azabicyclo[3.1.0]hexan-3-yl}-4-methylpyrimidin-5-yl)methyl]-N-[(6R)-3-methyl-2H,4H,5H,6H-cyclopenta[c]pyrazol-6-yl]-1H-imidazole-4-carboxamide] | 1 nM | > 10000 nM | –
15 | Cc1nc(N2CC3(CC3)C2)ncc1Cn1cnc(C(=O)N[C@@H]2CCc3c(C)n[nH]c32)c1 [Example 93, 1-[(2-{5-Azaspiro[2.3]hexan-5-yl}-4-methyl-pyrimidin-5-yl)methyl]-N-[(6R)-3-methyl-2H,4H,5H,6H-cyclopenta[c]pyrazol-6-yl]-1H-imidazole-4-carboxamide] | 4 nM | > 10000 nM | –
16 | Cc1nc(N2C[C@@H]3[C@@H](CO)[C@@H]3C2)ccc1Cn1cc(C(=O)N[C@@H]2CCc3c(C)n[nH]c32)cn1 [Example 94, 1-({6-[(1R,5S,6R)-6-(hydroxymethyl)-3-azabicyclo[3.1.0]hexan-3-yl]-2-methylpyridin-3-yl}methyl)-N-[(6R)-3-methyl-1H,4H,5H,6H-cyclopenta[c]pyrazol-6-yl]-1H-pyrazole-4-carboxamide] | 2 nM | > 10000 nM | –
17 | Cc1nc(N2CC3CC3C2)ccc1Cn1cnc(C(=O)N[C@@H]2CCc3c2n[nH]c3C)n1 (stereo partly drawn) [Example 107, 1-[(6-{3-Azabicyclo[3.1.0]hexan-3-yl}-2-methylpyridin-3-yl)methyl]-N-[(6R)-3-methyl-2H,4H,5H,6H-cyclopenta[c]pyrazol-6-yl]-1H-1,2,4-triazole-3-carboxamide] | 7 nM | – | –
18 | Cc1nc(N2CC3CC3C2)ccc1Cc1ccc(C(=O)N[C@@H]2CCc3c(C)n[nH]c32)[nH]1 (stereo partly drawn) [Example 109, 5-[(6-{3-Azabicyclo[3.1.0]hexan-3-yl}-2-methylpyridin-3-yl)methyl]-N-[(6R)-3-methyl-1H,4H,5H,6H-cyclopenta[c]pyrazol-6-yl]-1H-pyrrole-2-carboxamide] | 3 nM | > 10000 nM | –
